A short description of the data set: Stability in human serum in vitro (absorbance over time). Format: in vitro ADME. The following applies: 100 μM, 37° C. As for the experimental part: Three blood samples were collected from healthy human donors with the same blood group in serum separator vacutainer gel tubes. The samples were centrifuged at 1,800 g to separate serum. The serum samples obtained were pooled together into a separate tube.
NR, NRH and NRH-triacetate (NRHTA) were initially dissolved in DMSO and then diluted with normal saline to obtain a 1 mM stock solution of each compound. 100 μL of stock solution was added to 900 μL of pooled serum to assess the stability of the test compound in human serum. 200 μL of saline with 1,800 μL of pooled serum was used to prepare a solution for blanking and as a reference measurement. The stock solutions were diluted in the pooled serum and normal saline to prepare 100 μM solutions of the test compounds.
In previous experiments, spectral scans between 190 nm and 1100 nm were performed to determine absorbance maxima for NR, NRH and NRHTA, which have maximal absorbance at 265 nm, 340 nm and 331 nm, respectively, in solution.
The stability of a test compound in human serum was determined by a change in the concentration of the compound as measured by a change in absorbance at the maximal absorbance wavelength for the compound as a function of time. The test compounds at 100 μM were incubated in human serum at 37° C. Absorbance measurements were made at 0 min (T0), 5 min, 30 min, 120 min, 240 min, 360 min and 1440 min (24 hr). The relative change in absorbance compared to T0 was plotted and used for statistical analysis. The analysis was performed in triplicates.

The results in this text go back to US20250367229A1, “Treatment of Immune-Related Disorders, Kidney Disorders, Liver Disorders, Hemolytic Disorders, and Oxidative Stress-Associated Disorders Using NRH, NARH and Reduced Derivatives Thereof” (MitoPower LLC, priority 2021, published 2025).

As to `NC(=O)C1=CN([C@@H]2O[C@H](CO)[C@@H](O)[C@H]2O)C=CC1` [NRH, N-(β-D-ribofuranosyl)dihydronicotinamide], for the setting “6 hr”, the “compound remaining intact in human serum after 6 hr” value was “Most of both NRH and NRH-triacetate remained intact”. Moreover, for the setting “up to 24 hr, p<0.05”, the “stability in human serum compared with NR” value is recorded as “much more stable”.
